Assay results as given in ChEMBL document CHEMBL1201862, “PubChem BioAssay data set” (2004).
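Each compound was tested at five concentrations against cells in 96-well plates for 48 hours. Here, GI50 denotes the concentration required for 50% inhibition of growth.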 The source made the active and inactive calls. Rule as the data show it: active = GI50 up to about 1.1 µM and inactive = higher.

Columns and labels:
Experiment in all cases: growth of human tumour cells (NCI), 48 h
[1] = tested on: SF-295
[2] = tested on: OVCAR-4
[3] = tested on: HOP-62
[4] = tested on: SN12C
[5] = tested on: SF-539
[6] = tested on: SK-MEL-2
[7] = tested on: CCRF-CEM
[8] = tested on: TK-10
[9] = tested on: MOLT-4
[10] = tested on: A549
[11] = tested on: OVCAR-5
[12] = tested on: SW-620
[13] = tested on: COLO 205
[14] = tested on: U-251
[15] = tested on: RXF 393
[16] = tested on: HT-29
[17] = tested on: OVCAR-8
[18] = tested on: SR

Measured: GI50

CC(=O)Nc1ccccc1Sc1ccccc1
inactive: [1] > 100 µM | [2] > 100 µM | [3] > 100 µM | [4] > 100 µM | [5] > 100 µM | [6] > 100 µM | [7] > 100 µM | [8] > 100 µM | [9] > 100 µM | [10] > 100 µM | [11] > 100 µM | [12] > 100 µM | [13] > 100 µM | [14] > 100 µM | [15] 74.5 µM | [16] > 100 µM | [17] > 100 µM

O=C1O[C@@H](c2ccccc2)C[C@H]1CN1CCOCC1
inactive: [1] > 100 µM | [2] > 100 µM | [3] > 100 µM | [4] > 100 µM | [5] > 100 µM | [6] > 100 µM | [7] 33.7 µM | [8] 84.9 µM | [9] 33 µM | [10] > 100 µM | [11] > 100 µM | [12] > 100 µM | [13] 97.5 µM | [14] > 100 µM | [15] > 100 µM | [16] > 100 µM | [17] > 100 µM

CC(C)(O)[C@@H]1CCC(C)([C@H]2[C@@H](O)CC3(C)C4CC(OC5OC(CO)C(O)C(O)C5O)C5C(C)(C)[C@@H](OC6OCC(O)C(O)C6O)CC[C@@]56C[C@@]46CC[C@]23C)O1 (stereo partly specified)
inactive: [1] > 100 µM | [2] > 100 µM | [4] > 100 µM | [5] > 100 µM | [6] > 100 µM | [7] > 100 µM | [8] > 100 µM | [9] > 100 µM | [10] > 100 µM | [11] > 100 µM | [12] > 100 µM | [13] > 100 µM | [14] > 100 µM | [18] > 100 µM | [15] > 100 µM | [16] > 100 µM | [17] > 100 µM

C#CCC(N)(CO)C(=O)O (stereo unspecified)
inactive: [1] > 100 µM | [2] > 100 µM | [3] > 100 µM | [5] > 100 µM | [6] > 100 µM | [7] > 10 µM | [8] > 100 µM | [9] > 100 µM | [10] > 100 µM | [11] > 100 µM | [12] > 100 µM | [13] > 100 µM | [14] > 100 µM | [18] > 100 µM | [16] > 100 µM | [17] > 100 µM

O=Cc1ccc2c(c1-c1c(C=O)ccc3c1OCO3)OCO2
inactive: [1] > 100 µM | [2] > 100 µM | [3] > 100 µM | [4] > 100 µM | [5] > 100 µM | [6] > 100 µM | [7] 85.1 µM | [8] > 100 µM | [9] > 100 µM | [10] > 100 µM | [11] > 100 µM | [12] > 100 µM | [13] > 100 µM | [14] > 100 µM | [18] > 100 µM | [16] > 100 µM | [17] > 100 µM

COCC(OC)C(CC=C(C#N)C#N)OC (stereo unspecified)
inactive: [1] > 100 µM | [2] > 100 µM | [3] > 100 µM | [4] > 100 µM | [5] > 100 µM | [6] > 100 µM | [7] > 100 µM | [8] > 100 µM | [9] > 100 µM | [10] > 100 µM | [11] > 100 µM | [12] > 100 µM | [13] > 100 µM | [14] > 100 µM | [18] > 100 µM | [16] > 100 µM | [17] > 100 µM

Cc1ccc(C(=O)C(C2=Nc3nnc(N)n3C2=O)C2=Nc3nnc(N)n3C2=O)cc1
inactive: [1] > 100 µM | [2] > 100 µM | [4] > 100 µM | [5] > 100 µM | [6] > 100 µM | [7] > 100 µM | [8] > 100 µM | [9] > 100 µM | [10] > 100 µM | [11] > 100 µM | [12] > 100 µM | [13] > 100 µM | [15] > 100 µM | [16] > 100 µM | [17] > 100 µM

CCOC(=O)C1(C(=O)OCC)OC(=O)NC2=C1CCCC2
inactive: [1] > 100 µM | [3] > 100 µM | [5] > 100 µM | [6] > 100 µM | [7] > 100 µM | [8] > 100 µM | [9] > 100 µM | [10] > 100 µM | [11] > 100 µM | [12] > 100 µM | [13] > 100 µM | [14] > 100 µM | [15] > 100 µM | [16] > 100 µM | [17] > 100 µM
